Test results: patent US11185523B2, “Use of bipolar trans carotenoids with chemotherapy and radiotherapy for treatment of cancer” (DIFFUSION PHARMACEUTICALS LLC, priority 2016, dated 2021)
Entries after “also recorded” stand apart in the source; their conditions may differ.

What was measured:
[1] = Stability of TSC versus pH; assay type: physicochemical; conditions: dependence on pH
Method: Mannitol can be used to adjust osmolality and its concentration varies depending on the concentration of other ingredients. The glycine is held constant. […] The use of glycine is compatible with lyophilization. Alternatively, the TSC and cyclodextrin is formulated using a 50 mM bicarbonate or other buffers, in place of the glycine.

Cancer Chemosensitizer = experiment: Pre-clinical efficacy study: Cancer Chemosensitizer; assay type: in vivo; conditions: Rat
From the text: (§1) It has also been determined that several non-cancer disorders are beneficially treated utilizing an administration regimen of a bipolar trans carotenoid such as TSC, as described below.

Myocardial Infarction = experiment: Pre-clinical efficacy study: Myocardial Infarction; assay type: in vivo; conditions: Pig
From the text: as §1

Critical Limb Ischemia = experiment: Pre-clinical efficacy study: Critical Limb Ischemia; assay type: in vivo; conditions: Mouse
From the text: as §1

newly diagnosed GBM = experiment: Phase ½ clinical trial of TSC with RT and TMZ in GBM; assay type: in vivo, human; conditions: for Observed Survival Rate with TSC Treatment (Kaplan-Meier): TSC 0.25 mg/kg IV 3 times per week about 45 minutes prior to RT, plus TMZ
From the text: To date, TSC has been used in 148 human subjects […] […] A Phase 1⁄2 clinical trial was recently completed examining TSC in patients with GBM. The Phase 1⁄2 clinical trial in GBM enrolled 59 patients with newly diagnosed disease that received TSC in conjunction with radiation therapy (RT) and temozolomide (TMZ). In the Phase I portion of the trial TSC was initially administered three times per week at half-dose to three patients prior to radiation. Six additional patients received full dose TSC for six weeks in combination with radiation. […] Fifty additional patients were enrolled in the Phase II trial at full dose TSC in combination with TMZ and RT. Four weeks after completion of RT, all patients resumed TMZ for five days every four weeks, but no further TSC was administered. More specifically, fifty-nine patients with newly-diagnosed GBM were enrolled. Patients received standard of care (SOC) radiation therapy (RT) (2 Gy/day, 5 days/week for 6 weeks) and TMZ (75 mg/m2) starting within 5 weeks after a surgical resection of their tumor, if such surgery were possible. Patients receiving only needle biopsies (i.e., no surgery) were also enrolled. In addition to the SOC, TSC was administered 3 times per week, 0.25 mg/kg IV, usually on Monday, Wednesday and Friday, about 45 minutes prior to the RT sessions. Four weeks after completion of RT, patients began chemotherapy with TMZ for 5 days of the first week of a 4 week cycle. This continued for 6 such cycles. No TSC was administered during this chemotherapy.

VEGF A gene = experiment: Expression of HIF1 targeted genes in hypoxic conditions; conditions: gene upregulated with hypoxia
From the text: The subject disclosure relates to the treatment of various tumors and/or cancers (i.e., gliobastoma, pancreatic cancer, etc.). It is well established that tumors are hypoxic with many tumor types being highly hypoxic. Further, it is known that hypoxic tumors are more resistant to radiotherapy and chemotherapy. Through HIF1 alpha up-regulation, hypoxia is associated with multiple negative effects that lead to aggressive tumor phenotypes. These effects include increased angiogenesis, increased metastasis, as well as increased resistance to chemotherapy and radiation therapy. Hypoxia via HIF1a affects many genes involved in cancer progression. Bipolar trans carotenoids such as TSC alter expression of HIF1 targeted genes in hypoxic conditions.

Wound Healing = experiment: Pre-clinical efficacy study: Wound Healing; assay type: in vivo; conditions: Pig
From the text: as §1

Hemorrhagic Stroke = experiment: Pre-clinical efficacy study: Hemorrhagic Stroke; assay type: in vivo; conditions: Rat
From the text: as §1

Ischemic Stroke = experiment: Pre-clinical efficacy study: Ischemic Stroke; assay type: in vivo
From the text: as §1

[2] = Absorption into blood stream after intramuscular injection with gamma cyclodextrin; assay type: in vivo, rat; conditions: injected intramuscularly, rats
From the text: The use of gamma-cyclodextrin with TSC increases the solubility of TSC in water by 3-7 times. […] The incorporation of the gamma cyclodextrin also allows for TSC to be absorbed into the blood stream when injected intramuscularly. Absorption is quick, and efficacious blood levels of TSC are reached quickly (as shown in rats).

DMBA breast tumors = experiment: DMBA breast tumor model, TSC before chemotherapy; assay type: in vivo; conditions: for tumor growth, timing of TSC injection: Day 2, FIG. 5
Method: Breast tumors were induced through injection of DMBA (dimethylbenzantracene) under the mammary tissue of female rats. The tumors usually grow in most rats and reach measurable conditions after 10 days.
The following studies used a method in which a 3-mL syringe is filled first with 1 ml of DMBA dissolved in sunflower seed oil (20 mg DMBA per mL of solution). Following that, 2 mL's of air are pulled into the syringe. The needle of the syringe is then inserted under the mammary tissue near a hind leg and the air in the syringe is carefully injected. The injection of the air forms a “pocket”, and then the 1 mL of DMBA solution is injected into that pocket.
After the tumors have grown up (about 10 days), their volumes are estimated by measuring the diameter (d) and the length (L) of the football-shaped tumors formed. This is done using calipers after feeling the tumor with one's fingers. To estimate the volume of the tumor, you multiply the diameter squared times the length and divide by 2: Tumor volume (in mm3)={(d in mm)^22}×(L in mm)
TSC or saline (controls) was injected in the tail vein of the rats at a volume of 0.1 mL and a dose of 0.25 mg/kg TSC about 1-2 hours before the chemotherapeutic agent was injected intraperitoneally (IP) in the rats.
In order to understand which dosages are efficacious when used with chemotherapy, a rat model of breast tumors was used. The model involves injecting the chemical dimethylbenzanthracene (DMBA) under the mammary gland of a female Sprague-Dawley rat. After a few days, tumors begin to grow and can be measured by feeling the football-shaped tumor under the skin and measured using calipers.

Parkinson's Disease = experiment: Pre-clinical efficacy study: Parkinson's Disease; assay type: in vivo; conditions: Rat
From the text: as §1

SMILES: CC(/C=C/C=C(\C)C(=O)[O-])=C\C=C\C=C(C)\C=C\C=C(/C)C(=O)[O-].[Na+].[Na+] [TSC, trans sodium crocetinate]
- stability [1]: more stable at higher pHs
- Best Dosage (Cancer Chemosensitizer): High
- Best Dosage (Myocardial Infarction): Low
- Best Dosage (Critical Limb Ischemia): High
- Observed Survival Rate with TSC Treatment (Kaplan-Meier) (newly diagnosed GBM; 1 year): 71.2%
- Observed Survival Rate with TSC Treatment (Kaplan-Meier) (newly diagnosed GBM; 2 years): 36.3%
- reduction in tumor size (newly diagnosed GBM; 37 patients with partial resection or no resection, MRI): vast majority of these 37 patients showed reduction in tumor size
- survival at 2 years vs historical controls (newly diagnosed GBM; all groups of patients administered TSC in addition to SOC treatment): better survival at 2 years
- survival greater than rate in historical trial (newly diagnosed GBM; at both 1 and 2 years): 10%
- survivability at two years (newly diagnosed GBM; biopsy-only patients): 42.9%
- patients showing complete elimination of tumors (newly diagnosed GBM; full-dose patients): ~20%
- effect on glioblastoma multiforme tumors (newly diagnosed GBM; low dose (0.25 mg/kg) 45 minutes before radiation): effective
- dose-limiting toxicities (newly diagnosed GBM; nine patients, Phase I portion, half-dose and full dose TSC with radiation): No dose-limiting toxicities were identified
- increase in chance of survival at two years (newly diagnosed GBM; subgroup of patients considered inoperable, vs control): over 100%
- alive at two years (newly diagnosed GBM; subgroup of patients considered inoperable, less than 20 percent in the control): 40%
- VEGF A gene expression (VEGF A gene): down regulated
- Best Dosage (Wound Healing): High
- Best Dosage (Hemorrhagic Stroke): Low
- Best Dosage (Ischemic Stroke; Rabbit): Low
- Best Dosage (Ischemic Stroke; Rat): Low
- absorption into the blood stream [2]: quick
- effect on tumor volume with cisplatin (DMBA breast tumors; high dose (for rats) 0.25 mg/kg TSC 2 hours before 1 mg/kg cisplatin IP on days 0, 4, 11, 18, FIG. 2): efficacious; also recorded: significant improvement in tumor volume over the control
- tumor growth, timing of TSC injection (DMBA breast tumors; high dose TSC 2 hours before gemcitabine 7.5 mg/kg): best and best results
- pseudoprogression (increase in tumor volume on day 7) (DMBA breast tumors; high dose TSC 2 hours prior to doxorubicin): Pseudoprogression was also seen
- tumor growth with doxorubicin (DMBA breast tumors; high dose TSC 2 hours prior to doxorubicin, FIG. 7): marked reduction in tumor growth in comparison with the control group
- pseudoprogression (increase in tumor volume on day 7) (DMBA breast tumors; high dose TSC 2 hours prior to temozolomide, FIG. 6): pseudoprogression was seen
- pseudoprogression (DMBA breast tumors; high dose TSC 2 hrs. prior to paclitaxel): Pseudoprogression was also seen
- tumor growth with paclitaxel (DMBA breast tumors; high dose TSC 2 hrs. prior to paclitaxel, Days 0, 4, 8, 14, FIG. 8): marked reduction in tumor growth in comparison with the control group
- tumor growth, timing of TSC injection (DMBA breast tumors; high dose TSC concurrently, 1 hour before or 2 hours before gemcitabine 7.5 mg/kg): reduced tumor growth relative to control
- tumor growth with gemcitabine (DMBA breast tumors; high dose of TSC 2 hours before 5 mg/kg gemcitabine IP on days 0, 3, FIG. 4): substantially less tumor growth than those in the control group
- effect on tumor volume with gemcitabine (DMBA breast tumors; high dose of TSC 2 hours before 10 mg/kg gemcitabine IP on days 0, 3, day 3, FIG. 3): efficacious; also recorded: significant decrease in tumor volume
- Best Dosage (Parkinson's Disease): High
